# Data from publication PMC10366214, “The anti-Alzheimer potential of novel spiroindolin-1,2-diazepine derivatives as targeted cholinesterase inhibitors with modified substituents” (Scientific Reports, 2023).
# “Also recorded” adds a separate entry of the source.
# Tests used:
# AChE [1] = target: T1, AChE (Homo sapiens, UniProt P22303); assay: biochemical
# Procedure: (§1) Cholinesterase inhibitory activities of all analogs were evaluated spectrometrically using the modified Ellman method as previously reported[40],[41]. […] The absorbance of each well was measured at 415 nm using a microplate reader. IC50 values and inhibition values were calculated with the software GraphPad Prism as the mean of three independent experiments and are expressed as mean ± SEM.
# [2] = system: SH-SY5Y neuroblastoma cell line; assay: MTT toxicity assay on SH-SY5Y; type: cell-based; details: 72 h exposure; tested concentrations up to 50 µM
# Procedure: SH-SY5Y cells were maintained in Dulbecco's modified Eagle medium with Ham's F12 medium (DMEM/F12) containing 15% fetal bovine serum100 units/ml penicillin and 100 µg/ml streptomycin. Cells were seeded into flasks containing supplemented medium and maintained at 37 °C in a humidified atmosphere of 5% CO2 and 95% air. Cell viability, virtually the mitochondrial activity of living cells, was measured by quantitative colorimetric assay with MTT, as described previously. MTT reagent, at a final concentration of 0.5 mg/ml, was added to each well at the end of the incubation period, and the plate was placed in a humidified incubator for an additional two h periods. Metabolically active cells convert the yellow MTT tetrazolium compound to a purple formazan product. Then, the insoluble formazan was dissolved with dimethylsulfoxide; colorimetric determination of MTT reduction was measured at 540 nm. Control cells treated media were taken as 100% viability.
# AChE [3] = target: T1, AChE; assay: Enzyme kinetic study of AChE inhibition (Lineweaver-Burk, Ellman's method); type: biochemical
# Procedure: As previously reported, the kinetic study of AChE was carried out at five different concentrations of compound 5l and acetylthiocholine substrate (0.1–1 mM) by Ellman's method.
# BChE = BChE (Homo sapiens, UniProt P06276); assay: BChE inhibition, modified Ellman method; type: biochemical
# Procedure: as §1
# T1 sequence (P22303 32-614): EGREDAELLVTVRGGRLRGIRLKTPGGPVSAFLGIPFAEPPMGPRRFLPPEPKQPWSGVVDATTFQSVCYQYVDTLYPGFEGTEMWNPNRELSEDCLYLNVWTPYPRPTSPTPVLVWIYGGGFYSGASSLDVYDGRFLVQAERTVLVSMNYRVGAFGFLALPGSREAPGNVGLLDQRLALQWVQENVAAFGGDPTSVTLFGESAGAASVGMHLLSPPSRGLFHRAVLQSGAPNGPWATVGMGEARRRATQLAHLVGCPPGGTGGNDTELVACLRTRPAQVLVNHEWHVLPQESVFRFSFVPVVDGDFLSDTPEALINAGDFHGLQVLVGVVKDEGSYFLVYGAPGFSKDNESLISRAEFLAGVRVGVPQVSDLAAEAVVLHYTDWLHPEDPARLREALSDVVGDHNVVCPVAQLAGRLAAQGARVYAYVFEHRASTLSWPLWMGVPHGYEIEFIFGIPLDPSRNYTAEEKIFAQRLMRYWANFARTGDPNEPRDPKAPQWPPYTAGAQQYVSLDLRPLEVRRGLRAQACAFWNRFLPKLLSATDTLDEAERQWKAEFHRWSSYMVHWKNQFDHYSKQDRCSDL
# Chain of BChE (P06276 29-602): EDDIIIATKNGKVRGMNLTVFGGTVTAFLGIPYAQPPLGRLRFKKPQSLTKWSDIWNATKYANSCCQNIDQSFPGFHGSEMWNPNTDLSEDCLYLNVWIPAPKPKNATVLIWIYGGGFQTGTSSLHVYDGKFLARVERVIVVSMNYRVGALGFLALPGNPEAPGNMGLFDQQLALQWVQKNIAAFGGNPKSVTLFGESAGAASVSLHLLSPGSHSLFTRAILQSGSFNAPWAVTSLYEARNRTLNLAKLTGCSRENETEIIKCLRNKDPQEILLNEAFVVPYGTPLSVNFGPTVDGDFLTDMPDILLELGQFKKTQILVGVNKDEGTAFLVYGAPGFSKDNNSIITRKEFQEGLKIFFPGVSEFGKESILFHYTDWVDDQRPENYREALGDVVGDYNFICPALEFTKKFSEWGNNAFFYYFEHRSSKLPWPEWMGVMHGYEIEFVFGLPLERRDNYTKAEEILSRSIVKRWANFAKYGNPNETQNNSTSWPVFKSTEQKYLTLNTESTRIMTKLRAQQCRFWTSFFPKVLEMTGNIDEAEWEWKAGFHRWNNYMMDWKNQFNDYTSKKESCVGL
compound,measurement,setting,value
"N#CC1=C(N)NNC(Nc2ccc(O)cc2)=C([N+](=O)[O-])C12C(=O)Nc1ccc([N+](=O)[O-])cc12 (stereo not shown) [Compound 5l, 3-amino-7-((4-hydroxyphenyl)amino)-5',6-dinitro-2'-oxo-1,2-dihydrospiro[[1,2]diazepine-5,3'-indoline]-4-carbonitrile]",IC50,AChE [1],3.98 ± 1.07 µM
same,inhibition at 50 µM,AChE [1]; read-out: AChE % inhibition at 50 µM,87.4 ± 5.93%
same,toxicity against SH-SY5Y (MTT cell viability),[2],no toxicity; also recorded: did not show neurotoxicity
same,mode of AChE inhibition,AChE [3]; Lineweaver-Burk plot,mixed mode; also recorded: mix type inhibitor; also recorded: mix-type inhibition
same,Ki,"AChE [3]; five inhibitor concentrations (1, 4, 8, 12, 24 µM), acetylthiocholine 0.1-1 mM, read-out: inhibition constant Ki against AChE",0.044 µM
same,inhibition against BChE (in words),BChE,no significant inhibition; also recorded: inactive
same,inhibition at 50 µM,BChE; read-out: BChE % inhibition at 50 µM,5.71 ± 2.82%
